The source of these data is patent US4742045A, “Glycopeptide antibiotics” (SmithKline Beckman Corporation, priority 1986, dated 1988).

Converted amounts (≈) assume the structure as drawn. Where two headings read alike, the source gives them in different places.

The test system of the experiment is Staphylococcus epidermidis. The experiment in a line: standard microtiter assay, minimum inhibitory concentration. It counts as cell-based. In short, it runs like this:
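Broth microtiter MIC (μg/ml) of CWI-785 antibiotic, as complex, individual components or HCl salts, against several staphylococcal strains. Some assays run without serum or in 50% human or 50% mouse serum.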

Turning to `CN[C@H](CC(C)C)C(=O)N[C@H]1C(=O)N[C@@H](CC(N)=O)C(=O)N[C@H]2C(=O)N[C@H]3C(=O)N[C@H](C(=O)N[C@H](C(=O)O)c4cc(O)cc(O)c4-c4cc3ccc4O)[C@H](O)c3ccc(c(Cl)c3)Oc3cc2cc(c3O[C@@H]2O[C@H](CO)[C@@H](O)[C@H](O)[C@H]2O[C@H]2C[C@](C)(N)[C@H](O)[C@H](C)O2)Oc2ccc(cc2Cl)[C@H]1O` [Vancomycin, vancomycin], the MIC is, setting by setting: (Staphylococcus epidermidis, Table 5 organism 2 S. epidermidis, 50% Hum. Serum) 3.1 µg/mL (≈ 2.14 µM); (Staphylococcus epidermidis, Table 5 organism 2 S. epidermidis, 50% Mse. Serum) 3.1 µg/mL (≈ 2.14 µM); (Staphylococcus epidermidis, Table 5 organism 2 S. epidermidis, No Serum) 1.6 µg/mL (≈ 1.1 µM); (Staphylococcus epidermidis, Table 5 organism 4 S. epidermidis, 50% Hum. Serum) 3.1 µg/mL (≈ 2.14 µM); (Staphylococcus epidermidis, Table 5 organism 4 S. epidermidis, 50% Mse. Serum) 3.1 µg/mL (≈ 2.14 µM); (Staphylococcus epidermidis, Table 5 organism 4 S. epidermidis, No Serum) 1.6 µg/mL (≈ 1.1 µM). Further, the MIC (Staphylococcus epidermidis, Table 5 organism 5 S. epidermidis, 50% Hum. Serum) was ≤ 0.1 µg/mL; the MIC (Staphylococcus epidermidis, Table 5 organism 5 S. epidermidis, 50% Mse. Serum) is 3.1 µg/mL (≈ 2.14 µM); the MIC (Staphylococcus epidermidis, Table 5 organism 5 S. epidermidis, No Serum) was 1.6 µg/mL (≈ 1.1 µM); the MIC (Staphylococcus epidermidis, read-out: minimum inhibitory concentration, Table 1 test organism 14, S. epidermidis strain) is 1.6 µg/mL (≈ 1.1 µM); the MIC (Staphylococcus epidermidis, read-out: minimum inhibitory concentration, Table 1 test organism 15, S. epidermidis strain) was found to be 3.1 µg/mL (≈ 2.14 µM); the MIC (Staphylococcus epidermidis, read-out: minimum inhibitory concentration, Table 1 test organism 16, S. epidermidis strain) was 1.6 µg/mL (≈ 1.1 µM). Also, the MIC (Staphylococcus epidermidis, read-out: minimum inhibitory concentration, Table 2 test organism 6, S. epidermidis strain) amounted to 1.6 µg/mL (≈ 1.1 µM); the MIC (Staphylococcus epidermidis, read-out: minimum inhibitory concentration, Table 2 test organism 8, S. epidermidis strain) amounted to 1.6 µg/mL (≈ 1.1 µM); the MIC (Staphylococcus epidermidis, read-out: minimum inhibitory concentration, Table 2 test organism 12, S. epidermidis strain) came to 1.6 µg/mL (≈ 1.1 µM); the MIC (Staphylococcus epidermidis, read-out: minimum inhibitory concentration, Table 2 test organism 14, S. epidermidis strain) amounted to 1.6 µg/mL (≈ 1.1 µM).
For the molecule teicoplanin, the minimum inhibitory concentration is, setting by setting: (Table 1 test organism 14, S. epidermidis strain) 1.6 µg/mL; (Table 1 test organism 15, S. epidermidis strain) 12.5 µg/mL; (Table 1 test organism 16, S. epidermidis strain) 6.3 µg/mL; (Table 2 test organism 6, S. epidermidis strain) 12.5 µg/mL; (Table 2 test organism 8, S. epidermidis strain) 12.5 µg/mL; (Table 2 test organism 12, S. epidermidis strain) 12.5 µg/mL. The minimum inhibitory concentration (Table 2 test organism 14, S. epidermidis strain) worked out at 3.1 µg/mL. In addition, the MIC by setting is: (Table 5 organism 2 S. epidermidis, 50% Hum. Serum) 50.0 µg/mL; (Table 5 organism 2 S. epidermidis, 50% Mse. Serum) 50.0 µg/mL; (Table 5 organism 2 S. epidermidis, No Serum) 12.5 µg/mL; (Table 5 organism 4 S. epidermidis, 50% Hum. Serum) 50.0 µg/mL; (Table 5 organism 4 S. epidermidis, 50% Mse. Serum) 25.0 µg/mL; (Table 5 organism 4 S. epidermidis, No Serum) 12.5 µg/mL. Also, the MIC was > 100 µg/mL (Table 5 organism 5 S. epidermidis, 50% Hum. Serum); “<= 0.1 μg/ml” (Table 5 organism 5 S. epidermidis, 50% Mse. Serum); 12.5 µg/mL (Table 5 organism 5 S. epidermidis, No Serum).
